For seven compounds, IC50 results are on record in patent US8648201B2, “Aminopyridine derivatives for treating tumors and inflammatory diseases” (MERCK PATENT GmbH, priority 2009, dated 2014).

Structures are written as SMILES.

Assay [1] addresses T1, PDK1 (Homo sapiens, UniProt O15530).
T1 construct: endogenous in cells; host or cells: commercially available colon carcinoma, ovary, prostate or breast cell lines (none named)
T1 sequence (O15530 1-556): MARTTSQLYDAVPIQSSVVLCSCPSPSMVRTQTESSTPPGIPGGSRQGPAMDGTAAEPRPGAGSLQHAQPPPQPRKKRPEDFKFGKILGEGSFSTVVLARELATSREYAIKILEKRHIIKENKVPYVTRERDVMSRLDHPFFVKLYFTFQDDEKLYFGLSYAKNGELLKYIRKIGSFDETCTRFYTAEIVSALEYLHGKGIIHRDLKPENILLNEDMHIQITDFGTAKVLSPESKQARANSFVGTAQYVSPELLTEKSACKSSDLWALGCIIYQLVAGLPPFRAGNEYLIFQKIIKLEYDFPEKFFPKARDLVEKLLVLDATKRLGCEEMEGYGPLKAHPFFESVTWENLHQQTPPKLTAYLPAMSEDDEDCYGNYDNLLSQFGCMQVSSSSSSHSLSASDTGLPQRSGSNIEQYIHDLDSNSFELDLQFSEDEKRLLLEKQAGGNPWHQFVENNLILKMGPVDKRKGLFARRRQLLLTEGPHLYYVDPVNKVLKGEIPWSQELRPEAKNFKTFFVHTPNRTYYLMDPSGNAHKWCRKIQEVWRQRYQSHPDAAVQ
As to the kind of experiment: IC50 PDK1 (cell). The class given is cell-based. Here is the method:
The cells are sown in a suitable cell density in microtitre plates (96-well format) and the test substances are added in the form of a concentration series. After four further days of cultivation in serum-containing medium, the tumour cell proliferation/tumour cell vitality can be determined by means of an Alamar Blue test system. A defined number of cells (for example 2000 cells) per culture/well in a volume of 180 μl of culture medium are sown in microtitre plates (96 well cell-culture plates) using a multichannel pipette. The cells are subsequently cultivated in a CO2 incubator (37° C. and 10% CO2). The test substances are dissolved, for example, in DMSO and subsequently employed in corresponding concentration (if desired in a dilution series) in the cell culture medium. The dilution steps can be adapted depending on the efficiency of the active ingredients and the desired spread of the concentrations. Cell culture medium is added to the test substances in corresponding concentrations. The addition of the test substances to the cells can take place on the same day as the sowing of the cells. To this end, in each case 20 μl of substance solution from the predilution plate are added to the cultures/wells. The cells are cultivated for a further 4 days at 37° Celsius and 10% CO2. In each case, 20 μl of Alamar Blue reagent are added per well, and the microtitre plates are incubated, for example, for a further seven hours in a CO2 incubator (at 37° C. and 10% CO2). The plates are measured in a reader with a fluorescence filter at a wavelength of 540 nm. The plates can be shaken gently immediately before the measurement. The absorbance value of the medium control (no cells and test substances used) is subtracted from all other absorbance values. The controls (cells without test substance) are set equal to 100 percent, and all other absorbance values are set in relation thereto (for example in % of control): Calculation: 100*(value with cells and test substance−value of medium control)/(value with cells−value of medium control) IC50 values (50% inhibition) are determined with the aid of statistics programs, such as, for example, RS1.

The target of assay [2] is T2, PDK1 (Homo sapiens, UniProt O15530).
T2 construct: His6 (N)
T2 sequence (O15530 51-556 limits assumed): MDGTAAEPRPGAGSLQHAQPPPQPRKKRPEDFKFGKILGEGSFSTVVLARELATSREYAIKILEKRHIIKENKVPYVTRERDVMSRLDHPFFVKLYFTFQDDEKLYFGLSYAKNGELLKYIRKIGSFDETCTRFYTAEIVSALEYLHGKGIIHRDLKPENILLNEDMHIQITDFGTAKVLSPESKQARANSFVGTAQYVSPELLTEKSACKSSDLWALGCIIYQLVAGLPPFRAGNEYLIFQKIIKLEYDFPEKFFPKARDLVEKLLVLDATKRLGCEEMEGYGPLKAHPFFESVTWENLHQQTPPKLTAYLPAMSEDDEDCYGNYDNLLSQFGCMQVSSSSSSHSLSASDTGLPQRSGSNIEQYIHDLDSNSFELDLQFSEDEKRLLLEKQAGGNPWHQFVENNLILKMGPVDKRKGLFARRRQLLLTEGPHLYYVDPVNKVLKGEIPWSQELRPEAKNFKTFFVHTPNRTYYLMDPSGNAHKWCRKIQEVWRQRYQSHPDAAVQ
As to the kind of experiment: Test for the inhibition of PDK1 (flashplate, 33P-ATP). Conditions: enzyme. In kind it is biochemical. In short, it runs like this: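 His6-PDK1(1-50) (3.4 nM) incubated with biotinylated peptide substrate (400 nM), 4 μM ATP plus 33P-ATP and compound, 60 min at 30 °C. Incorporated radioactivity counted; blank with 100 nM staurosporine subtracted, activity as % of compound-free control. IC50 from dose series.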

In general, IC50 refers to the concentration that gives 50% inhibition. A high value points to weaker potency in that assay.

With `CC1CC(=O)NN=C1c1ccc2nc(-c3cc(-c4cnn(C)c4)cnc3N)[nH]c2c1` (racemic) [Compound A1, 6-{2-[2-amino-5-(1-methyl-1H-pyrazol-4-yl)pyridin-3-yl]-3H-benzimidazol-5-yl}-5-methyl-4,5-dihydro-2H-pyridazin-3-one], the IC50 was 100 to 10000 nM in assay [1] and 1 to 100 nM in assay [2].

Turning to `COc1ccc2nc(-c3cc(-c4cnn(C)c4)cnc3N)[nH]c2c1` [Compound A43], the IC50 in assay [1] was over 10000 nM; in assay [2], 1 to 100 nM.

For the compound `Cn1cc(-c2cnc(N)c(-c3nc4cccc(CO)c4[nH]3)c2)cn1` [Compound A52], the IC50 lay within 100 to 10000 nM in assay [1] and 1 to 100 nM in assay [2].

With `COc1ccc2nc(-c3cc(-c4cnn(C5CCNCC5)c4)cnc3N)[nH]c2c1` [Compound A92, 3-(6-Methoxy-1H-benzimidazol-2-yl)-5-(1-piperidin-4-yl-1H-pyrazol-4-yl)pyridin-2-ylamine], the IC50 in assay [1] was over 10000 nM; in assay [2], 1 to 100 nM.

As for `Cn1cc(-c2cnc(N)c(-c3nc4ccc(C(=O)NCCc5ccc(F)c(F)c5)cc4[nH]3)c2)cn1` [Compound A128, N-[2-(3,4-difluorophenyl)ethyl]-2-[2-amino-5-(1-methyl-1H-pyrazol-4-yl)pyridin-3-yl]-3H-benzimidazole-5-carboxamide], the IC50 was over 10000 nM in assay [1] and 1 to 100 nM in assay [2].

`COc1ccc2nc(-c3cc(-c4ccc(C(=O)NC5CCN(C)CC5)s4)cnc3N)[nH]c2c1` [Compound A133, N-(1-Methylpiperidin-4-yl)-5-[6-amino-5-(6-methoxy-1H-benzimidazol-2-yl)pyridin-3-yl]thiophene-2-carboxamide]: the half-inhibitory concentration (IC50) is over 10000 nM in assay [1] and 1 to 100 nM in assay [2].

In the case of `COc1ccc2nc(-c3cc(-c4ccsc4)cnc3N)[nH]c2c1` [Compound A144, 3-(6-methoxy-1H-benzimidazol-2-yl)-5-thiophen-3-ylpyridin-2-ylamine], the results for the IC50 in assay [1] and in assay [2] were over 10000 nM and 1 to 100 nM, respectively.
